Data published in patent US9421179B2, “Acamprosate formulations, methods of using the same, and combinations comprising the same” (Synchroneuron Inc., priority 2011, dated 2016).
“Also recorded” adds a separate entry of the source.

Assays:
[1] = tested on: abnormal chewing movements produced in rats by haloperidol; assay: Rat model of tardive dyskinesia (haloperidol-induced abnormal chewing movements); type: in vivo; details: steadily-maintained blood level; rats exposed several weeks to haloperidol
Description: Acamprosate is tested using a rat model of tardive dyskinesia looking at abnormal chewing movements produced in rats by exposing them for several weeks to haloperidol, a potent first-generation neuroleptic. […]

[2] = tested on: tardive dyskinesia; assay: Clinical cases: acamprosate treatment of tardive dyskinesia; type: in vivo, human
Description: Case 1: A person had long-standing tardive dyskinesia induced by treatment of schizoaffective disorder with a variety of neuroleptics and mood stabilizers. Their TD was characterized by side to side movements of the jaw, grimacing movements, rocking of the trunk, and continual involuntary kicking, leg-crossing, and twisting movements of their legs and feet. At the time they presented for treatment of their TD they were treated for their mental illness with lamotrigine and quetiapine, a second-generation neuroleptic.
After additional weeks free of TD symptoms they discontinued the acamprosate. Their TD symptoms returned, as did feelings of anxiety and agitation that had not been present while they were on the combination of acamprosate and perphenazine.
To test the hypothesis that the efficacy of acamprosate was related to adequate time above a threshold blood level the patient was asked to try taking 1332 mg of acamprosate once a day.
CASE 2: A person had been treated with acamprosate for several years for TD due to exposure to several neuroleptics for schizoaffective disorder. They were currently treated with lamotrigine and quetiapine for their mental illness, and was taking acamprosate 1032 mg+999 mg+1032 mg on a three times daily basis. […] To test the therapeutic threshold hypothesis the patient was asked to try 1032 mg of acamprosate once a day in the morning.

[3] = tested on: Per2(Brdm1) deletion or ENT1(-/-) mice; assay: Transgenic mouse models with movement disorders and hyperglutamatergic states; type: in vivo; details: steadily-maintained blood level
[4] = cited from earlier work
[5] = tested on: cultured rat hippocampus neurons; assay: Organotypic hippocampal slice model of glutamate neurotoxicity after acamprosate pre-treatment; type: cell-based; details: 200 μM calcium acamprosate for 8 hr or 5 days; removed for up to eight hours; challenge NMDA 50 uM or mGluR agonist
Description: The study is designed to test whether pre-treatment with acamprosate can have long-term neuronal protective effects against glutamate neurotoxicity. The study uses an in vitro organotypic hippocampal slice model. The study assesses whether less than 24 hours per day of exposure to a sufficient level of acamprosate can offer 24-hour therapeutic actions in neuropsychiatric disorders. […] This supports, among other things, the therapeutic use of acamprosate in neuropsychiatric disorders because the latter are related to the effect of acamprosate to decrease glutamate effects at NMDA and metabotropic glutamate receptors.
Hippocampal slices derived from 8-day-old Sprague Dawley rats are plated and subsequently exposed to a relatively acute (8 hour) or more chronic (5 day) acamprosate treatment. […] The slices are then placed in normal medium with propidium iodide for 24 hr and assessed for neurotoxicity/neuroprotection as described below. […]
For the final medium change, the plates are moved into normal media containing propidium iodide (PI) added to each well for 24 hours. PI only penetrates cell membranes of damaged or potentially dying cells, binding to DNA to produce a bright, intensified red fluorescence at 630 nm. […] Fluorescence is recorded in arbitrary units, then converted to percent of control, facilitating comparison across multiple cultures and controlling for variation between litters.

[6] = cited from earlier work; remark: listed apart in the source
[7] = Gastric retention time of swellable acamprosate tablet in dog model (fed mode induction with alpha-lipoic acid); type: in vivo; details: retention of 800 mg swellable tablet; After 125 mg alpha-lipoic acid given 15 minutes before; four beagle dogs

Compound	abnormal chewing movements [1]	relief of TD symptoms ([2]; Case 1, 666 mg three times a day)	relief of TD symptoms ([2]; Case 1, 999 mg three times a day)	anxiety and agitation ([2]; Case 1, 999 mg three times a day, with perphenazine)	relief of TD symptoms ([2]; Case 1, 1332 mg once a day)	side effects ([2]; Case 1, 1332 mg once a day)	relief of involuntary movements of TD ([2]; Case 2, 999 mg three times a day)	relief of involuntary movements of TD ([2]; Case 2, 1032 mg in the morning plus second dose of 1032 mg 8 to 10 hours later)	relief of involuntary movements of TD ([2]; Case 2, 1032 mg once a day in the morning)	relief of involuntary movements of TD ([2]; Case 2, 1032 mg+999 mg+1032 mg three times daily)	anxiety and agitation ([2]; Case 2, when involuntary movements were relieved, with lamotrigine and quetiapine)	abnormal movements [3]	decrease of bioavailability by food [4]	effect on post-synaptic effects of glutamate agonists after removal of acamprosate from the culture medium [5]	solubility [6]	solubility in gastric juice ([6]; gastric juice)	Average gastric retention time [7] [h]	Maximum gastric retention time [7] [h]	Minimum gastric retention time [7] [h]
CC(=O)NCCCS(=O)(=O)O [acamprosate, calcium N-acetylhomotaurinate]	reduce or eliminate the abnormal movements	partial relief of symptoms; also recorded: did not give their complete relief	complete relief of their TD	relief of anxiety and agitation	free of involuntary movements of TD	significant GI side effects of diarrhea and abdominal cramps	did not give full relief from their involuntary movements	complete relief of symptoms	free of movements in the morning and early afternoon but movements returned in the evening	completely relieved their involuntary movements of TD	less anxiety and agitation	reduce or eliminate the abnormal movements	approximately 30%	persistent effect	high solubility	immediately and completely soluble in gastric juice	–	–	–
O=C(O)CCCCC1CCSS1 (stereo not drawn) [alpha-lipoic acid]	–	–	–	–	–	–	–	–	–	–	–	–	–	–	–	–	2.8	5	1.5
